The values that follow come from patent publication US4464371A, “Five-membered heterocyclic compounds” (Santen Pharmaceutical Co., Ltd., priority 1980, dated 1984).

In series [1] the test system is blood pressure of spontaneously hypertensive rats. Put plainly: Hypotensive effect in spontaneously hypertensive rats (oral, indirect tail-cuff method). The format is in vivo, Male spontaneously hypertensive rats (Charles River). The conditions noted are these: 10 mg/Kg and 30 mg/Kg, suspended in 0.5% tragacanth, male spontaneously hypertensive rats. As to the method: Male spontaneously hypertensive rats (Charles River) weighing 370-430 g (37-43 weeks of age) were used.
The subject compound, suspended in 0.5% tragacanth, was given orally to the animals. Their blood pressure was measured by indirect tail-cuff method using a programmed electrosphygmomanometer.
In the figure, line 1 and line 2 represent the hypotensive effect by the compound of this invention at doses of 30 mg/Kg and 10 mg/Kg, respectively, line 3 that by the reference compound at a dose of 30 mg/Kg, and line 4 control (no drugs).

The nature of a further series: Acute toxicity test. The format is in vivo, male mice. The conditions noted are these: mouse, in vivo; intravenous, administered as aqueous sodium hydroxide solution, male mice. From the text: (§1) Acute toxicity of (2R,4R)--3--[S--[4--(dipropylsulfamoyl)--benzoyl]--3--mercaptopropionyl]-- 2--(2--hydroxyphenyl)--4--thiazolidinecarboxylic acid is shown in the table.
(§2) *^1 administered as tragacanth
(§3) *^2 administered as aqueous sodium hydroxide solution
(§4) Animals used in this test were ten male mice in each route.

In another series the test system is mice. Put plainly: Acute toxicity test. The format is in vivo, male mice.
From the text: as §1, §2, §3, §4

On to `CCCN(CCC)S(=O)(=O)c1ccc(C(=O)SCCC(=O)N2[C@@H](c3ccccc3O)SC[C@H]2C(=O)O)cc1` [Example 1, (2R,4R)--3--[S--[4--(Dipropylsulfamoyl)benzoyl]--3--mercaptopropionyl]--2-- (2--hydroxyphenyl)--4--thiazolidinecarboxilic acid], for which, in series [1], the “decrease of blood pressure (hypotensive effect)” value is recorded as “clearly decreased the blood pressure”. This compound came in with an LD50 in “Acute toxicity test” greater than 500 mg/kg. Besides, the “LD50 (deaths observed)” value in the series on mice (mouse, in vivo, po, 1000 mg/kg) was “No death was observed”. For the same compound, the “acute toxicity (overall)” value with mice (oral and intravenous, male mice) is listed as “low toxicity”.

Broadly, the LD50 is the dose expected to kill half of the subjects tested. Low readings indicate a more toxic substance, high ones a less toxic substance.
